Where a SMILES comes first, the peptide text is derived from it. Bridges are numbered along the chain shown (N, C = ends).
Tests used:
[1] = system: antibodies against human ACHR α chain peptides; assay: Binding of anti-peptide antibodies to the peptides on Co-Bind plate; design: species or system mice; conditions: antisera diluted 1:500 (v/v) with PBS/0.05% casein; corrected for nonspecific binding to casein
Method: Anti-peptide antibodies were raised in outbred mice by immunization in the hind footpads of 50 μg of synthetic peptide in 100 μl emulsion prepared from equal volumes of PBS and Freund's complete adjuvant. The immunizations were done on day 1, day 15, day 30 and day 45. Rabbit immune IgG fractions with specificity against human IgG and human IgM and mouse IgG and IgM were obtained from DAKO Co. (DAKO-immunoglobulins a/s, Denmark) and Accurate Chemical Scientific Corp. (Westbury, N.Y.), respectively.
1.0 mg of peptide was dissolved in 5 μl of dimethylformamide and then diluted to 50 μg/ml with 0.15M NaCl in 0.01M sodium phosphate buffer, pH 7.2, containing 0.01% thimerosal (PBS). Aliquots of the peptide solution, were applied to wells of the 96-well Co-Bind plate. The plates were incubated at room temperature overnight with continuous gentle rocking. After washing three times with PBS, the wells were quenched (3 hrs., room temperature) with 0.2 ml of 1.0M glycine-NaOH, pH 7.2. After washing the wells three times with PBS, an aliquot (100 μl) of a 0.1% solution of casein in PBS were added to each well and the plates were incubated at 37° C. for 90 min to block the remaining reactive groups on the wells. The plates were then washed three times with PBS and incubated (37° C., 4 hrs) with 100 μl of plasma or mouse antiserum (1:200 or 1:500 dilution with PBS containing 0.1% casein). For binding to peptide α182-198, the plates were blocked with, and plasma were diluted in, 0.5% (instead of 0.1%) casein in PBS. After washing four times with PBS, the plates were incubated (4° C., overnight) with 100 μl of rabbit anti-human (IgG+IgM) or anti-mouse (IgG+IgM) (2.5 μg/ml) in PBS containing 0.1% casein. The plates were washed four times with PBS and incubated (3 hrs., room temperature) with ^125 I-labeled protein A (2×10^5 cpm) in 100 μl of PBS-0.1% casein. After washing five times with PBS, bound radioactivity was removed from the wells, by the addition of 100 μl of 5% SDS in 0.2N NaOH. The plates were allowed to stand for 20 min at room temperature and the solutions were then transferred quantitatively to small test tubes for counting. This procedure was repeated three times, and the solutions in each case were added to the respective tubes. The samples were counted on a Beckman 4000 gamma counter. The radioactivity bound by three unrelated proteins (casein, cytochrome C and bovine serum albumin) and a nonsense peptide (ESSGTGIESSGTGI) (Atassi et al. 1987) were used as controls to correct for nonspecific binding. It should be noted that in other experiments, in which the plates were blocked and all dilutions were made with PBS containing human adult hemoglobin or bovine serum albumin, the non-specific binding was considerably higher than when casein was used.
To confirm that the synthetic human AChR peptides can be coupled to Co-Bind plate, they were used to raise anti-peptide antibodies in mice. The peptides were bound onto the well of Co-Bind plates, followed by reaction with the respective anti-peptide antibody, pre-diluted 1:500 (v/v) with PBS/0.05% casein.

[2] = system: experimental autoimmune myasthenia gravis (EAMG); assay: Electromyography (repetitive nerve stimulation) for electrophysiological EAMG after immunization with Torpedo AChR; assay type: in vivo, C57/BL6 mice
Method: Six weeks old C57/BL6 mice were purchased from Charles River Breeding Laboratories (Wilmington, Mass.). Preimmune sera were obtained from the mice for use as controls in subsequent antibody binding assays. […] Then, on day 0, the mice were immunized subcutaneously in one hind footpad and intramuscularly in the same side shoulder with 20 μg of Torpedo AChR in 100 μl emulsion containing equal volumes of complete Freund's adjuvant and PBS. Thirty days later, the mice were immunized with a similar dose of the receptor in the opposite footpad and shoulder. On the 37th day, test bleeds were obtained from the mice for determination of the antibody titers. Electrophysiological studies were performed on the 38th and 39th days. Finally, the mice were sacrificed on the 40th day and lymph node cells were obtained for T cell studies. To document the electrophysiological evidence of EAMG, amplitudes of serial muscle action potentials were measured by electromyography (EMG) during the repetitive stimulation of the nerve in immunized mice, using the Mystro EMG system (TECA Corporation). A pair of wire electrodes were surgically implanted, encircling the sciatic nerve, two days before EMG. The nerve was stimulated through the implanted electrodes by 3 Hz trains of supramaximal electric current with a duration of 200 microseconds. The corresponding muscle action potentials were recorded with an electrode subcutaneously inserted over the gastrocnemius muscle. A reference electrode was placed at the ankle. Ether inhalation was used during the surgical and recording procedures. […] Students' t-test was used to analyze the differences of amplitude changes between the two groups. A typical myasthenic response of a greater than 10% decrement was considered to constitute an electrophysiological evidence of EAMG. The frequency of electrophysiological EAMG was calculated in each group and analyzed by chi-square test.

peptide α125-148 = assay: Radioimmunoassay of anti-AChR antisera from pretreated mice: antibody binding to peptide α125-148; assay type: in vivo, C57/BL6 mice
Method: Six weeks old C57/BL6 mice were purchased from Charles River Breeding Laboratories (Wilmington, Mass.). Preimmune sera were obtained from the mice for use as controls in subsequent antibody binding assays. After 2-weeks rest, the mice were divided into three groups which received, at eleven, seven and three days before immunization with AChR, an intraperitoneal injection (5 μg in 25 μl of PBS [0.15M NaCl in 0.01M sodium phosphate buffer, pH 7.2]) of either the mPEG-(α125-148) conjugate (Group 1), mPEG-nonsense peptide conjugate (Group 2) or unaltered free peptide α125-148 (Group 3) (FIG. 5). Then, on day 0, the mice were immunized subcutaneously in one hind footpad and intramuscularly in the same side shoulder with 20 μg of Torpedo AChR in 100 μl emulsion containing equal volumes of complete Freund's adjuvant and PBS. Thirty days later, the mice were immunized with a similar dose of the receptor in the opposite footpad and shoulder. On the 37th day, test bleeds were obtained from the mice for determination of the antibody titers. Electrophysiological studies were performed on the 38th and 39th days. Finally, the mice were sacrificed on the 40th day and lymph node cells were obtained for T cell studies.
One mg of the synthetic peptide was dissolved in 50 μl dimethylformamide and then diluted with PBS to 25 μg/ml. A solution of Torpedo AChR in PBS was prepared to contain 2.5 μg/ml. Aliquots (50 μl/well) of the peptide or AChR solutions were added to a 96-well microtiter plate (Falcon Micro Test III flexible assay plate, Becton Dickinson, Oxcard, Calif.) and the plates were incubated at room temperature overnight. After washing 3 times with PBS, the plates were blocked with 0.25% bovine serum albumin (BSA [bovine serum albumin]) in PBS (50 μl/well) at 37° C. for 90 minutes. The plates were washed again 5 times with PBS and to each well was added 50 μl of the serum from AChR-immunized mice, pre-diluted with PBS containing 0.10% BSA, and the plates were covered and allowed to stand at room temperature overnight. After 5 washes with PBS, 50 μl of rabbit IgG antibodies (2.5 μg/ml) against mouse IgG and IgM (Accurate Chemical Scientific Corporation, Westbury, N.Y.) was added to each well and the plates were incubated at 37° C. for 3 hours. The plates were then washed 5 times with PBS and ^125 I-labeled protein A (2×10^5cpm in 50 μl of PBS-0.1% BSA) was added to each well. The plates were incubated for 3 hours at room temperature, after which they were washed and the wells were cut out and counted for bound radioactivity. Pre-immune serum samples, obtained from the mice prior to any experimental treatments, were used as controls to correct for non-specific binding.

[3] = 5 μg i.p. at 11, 7 and 3 days before immunization with Torpedo AChR, EMG on days 38-39

| Compound | Antibody Binding to immunizing Peptide (CPM) [1] | also measured |
| --- | --- | --- |
| α158-174: synthetic peptide, residues α158-174 of human AChR α-chain (INPESDQPDLSNFMESG) | 14799 CPM |  |
| α23-38: synthetic peptide, residues α23-38 of human AChR α-chain (EDHRQVVEVTVGLQLI) | 71893 CPM |  |
| CC[N+](C)(C)c1cccc(O)c1 [edrophonium chloride, reference compound] |  | decremental amplitude after edrophonium ([2]; EAMG-positive mouse with -33% decrement, 3 minutes after i.p. injection of 250 μg): -13%; reversibility of typical myasthenic decremental response ([2]; i.p. injection of 250 μg): reversible |
| α146-162: synthetic peptide, residues α146-162 of human AChR α-chain (LGTWTYDGSVVAINPES) | 13649 CPM |  |
| α45-60: synthetic peptide, residues α45-60 of human AChR α-chain (EVNQIVTTNVRLKQQW) | 82404 CPM |  |
| CC[C@H](C)[C@H](NC(=O)CNC(=O)[C@H](CC(C)C)NC(=O)[C@H](CCCCN)NC(=O)[C@H](CCSC)NC(=O)[C@@H](NC(=O)[C@@H]1CSSC[C@H](NC(=O)[C@H](Cc2ccc(O)cc2)NC(=O)[C@H](CO)NC(=O)[C@@H](N)CCCCN)C(=O)N[C@@H](CCC(=O)O)C(=O)N[C@@H]([C@@H](C)CC)C(=O)N[C@@H]([C@@H](C)CC)C(=O)N[C@@H](C(C)C)C(=O)N[C@@H]([C@@H](C)O)C(=O)N[C@@H](Cc2c[nH]cn2)C(=O)N[C@@H](Cc2ccccc2)C(=O)N2CCC[C@H]2C(=O)N[C@@H](Cc2ccccc2)C(=O)N[C@@H](CC(=O)O)C(=O)N[C@@H](CCC(N)=O)C(=O)N[C@@H](CCC(N)=O)C(=O)N[C@@H](CC(N)=O)C(=O)N1)[C@@H](C)O)C(=O)O [α125-148] (H-KSYCEIIVTHFPFDQQNCTMKLGI-OH; disulfide 4-18) |  | mean amplitude change of muscle action potentials [2, 3]: -15.9%; mice showing a decremental response greater than 10% [2, 3]: 56%; antibody binding to peptide α125-148, mean net cpm ± standard deviation (peptide α125-148; anti-AChR antisera of individual mice, day 37 bleeds): 3626+2214 cpm; antibody binding to peptide α125-148, pooled antisera in serial dilutions (peptide α125-148; pooled serum of each group, various dilutions): consistently greater than the other two controls; antibodies bound to peptide α125-148 in anti-AChR antisera (peptide α125-148; pretreatment prior to immunization with Torpedo AChR): no decrease |
| α170-186: synthetic peptide, residues α170-186 of human AChR α-chain (FMESGEWVIKESRGWKH) | 71323 CPM |  |
| α89-104: synthetic peptide, residues α89-104 of human AChR α-chain (DLVLYNNADGDFAIVK) | 29199 CPM |  |
| α1-16: synthetic peptide, residues α1-16 of human AChR α-chain (SEHETRLVAKLFKDYS) | 78940 CPM |  |
| α194-210: synthetic peptide, residues α194-210 of human AChR α-chain (PDTPYLDITYHFVMQRL) | 66804 CPM |  |
| α67-82: synthetic peptide, residues α67-82 of human AChR α-chain (WNPDDYGGVKKIHIPS) | 22884 CPM |  |
| α34-49: synthetic peptide, residues α34-49 of human AChR α-chain (GLQLIQLINVDEVNQI) | 62360 CPM |  |
| α134-150: synthetic peptide, residues α134-150 of human AChR α-chain (HFPFDEQNGSMKLGTWT) | 52077 CPM |  |
| α56-71: synthetic peptide, residues α56-71 of human AChR α-chain (LKQQWVDYNLKWNPDD) | 36038 CPM |  |
| α78-93: synthetic peptide, residues α78-93 of human AChR α-chain (IHIPSEKIWRPDLVLY) | 4433 CPM |  |
| α100-115: synthetic peptide, residues α100-115 of human AChR α-chain (FAIVKFTKVLLQYTGH) | 57717 CPM |  |
